Test results taken from ChEMBL document CHEMBL1201862, “PubChem BioAssay data set” (2004).
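48-hour exposure; five concentrations; linearly interpolated endpoints. GI50: concentration for 50% inhibition of growth.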 Activity calls are given as the source filed them. Rule as the data show it: active = GI50 up to about 1.1 µM and inactive = higher.

What was measured:
Assay in all cases: inhibition of tumour cell growth, NCI panel, 48 h
SNB-75 = test system: SNB-75
MCF7 = test system: MCF7
MDA-MB-435 = test system: MDA-MB-435
EKVX = test system: EKVX
A549 = test system: A549
NCI-H522 = test system: NCI-H522
SW-620 = test system: SW-620
K562 = test system: K562
SF-295 = test system: SF-295
HT-29 = test system: HT-29
OVCAR-4 = test system: OVCAR-4
UACC-257 = test system: UACC-257
BT-549 = test system: BT-549
UACC-62 = test system: UACC-62
NCI/ADR-RES = test system: NCI/ADR-RES
NCI-H460 = test system: NCI-H460
HL-60 = test system: HL-60
A498 = test system: A498
SK-MEL-2 = test system: SK-MEL-2
SNB-19 = test system: SNB-19

Compound	GI50 (SNB-75)	GI50 (MCF7)	GI50 (MDA-MB-435)	GI50 (EKVX)	GI50 (A549)	GI50 (NCI-H522)	GI50 (SW-620)	GI50 (K562)	GI50 (SF-295)	GI50 (HT-29)	GI50 (OVCAR-4)	GI50 (UACC-257)	GI50 (BT-549)	GI50 (UACC-62)	GI50 (NCI/ADR-RES)	GI50 (NCI-H460)	GI50 (HL-60)	GI50 (A498)	GI50 (SK-MEL-2)	GI50 (SNB-19)
COc1ccc(C(=O)/C=C/c2ccc(O)c(O)c2)c(OC)c1	1.91 µM (inactive)	0.301 µM (active)	0.47 µM (active)	11.8 µM (inactive)	14 µM (inactive)	0.245 µM (active)	1.22 µM (inactive)	0.442 µM (active)	3.66 µM (inactive)	7.76 µM (inactive)	12.4 µM (inactive)	3.87 µM (inactive)	3.26 µM (inactive)	2.98 µM (inactive)	2.75 µM (inactive)	3.04 µM (inactive)	0.377 µM (active)	4.5 µM (inactive)	2.77 µM (inactive)	2.96 µM (inactive)
CN(O)C(=O)CCC(NC(=O)CCC(N)C(=O)O)C(=O)NCC(=O)O (stereo not drawn)	> 100 µM (inactive)	> 100 µM (inactive)	> 100 µM (inactive)	> 100 µM (inactive)	> 100 µM (inactive)	> 100 µM (inactive)	> 100 µM (inactive)	> 100 µM (inactive)	> 100 µM (inactive)	> 100 µM (inactive)	> 100 µM (inactive)	> 100 µM (inactive)	> 100 µM (inactive)	> 100 µM (inactive)	> 100 µM (inactive)	> 100 µM (inactive)	> 100 µM (inactive)	> 100 µM (inactive)	> 100 µM (inactive)	> 100 µM (inactive)
O=C1/C(=C/c2ccc(O)cc2)CCc2ccccc21	26.9 µM (inactive)	6.38 µM (inactive)	21.5 µM (inactive)	23 µM (inactive)	23.6 µM (inactive)	3.05 µM (inactive)	19.4 µM (inactive)	13.6 µM (inactive)	28 µM (inactive)	21.5 µM (inactive)	18.5 µM (inactive)	17.3 µM (inactive)	20 µM (inactive)	21.5 µM (inactive)	12.7 µM (inactive)	29.3 µM (inactive)	6.14 µM (inactive)	24.7 µM (inactive)	16 µM (inactive)	22.4 µM (inactive)
Clc1ccc(/C=N/c2ccc3c(c2)Cc2ccccc2-3)c(Cl)c1	> 100 µM (inactive)	> 100 µM (inactive)	50.7 µM (inactive)	> 100 µM (inactive)	> 100 µM (inactive)	> 100 µM (inactive)	> 100 µM (inactive)	58.3 µM (inactive)	> 100 µM (inactive)	> 100 µM (inactive)	> 100 µM (inactive)	> 100 µM (inactive)	> 100 µM (inactive)	> 100 µM (inactive)	> 100 µM (inactive)	> 100 µM (inactive)	77.1 µM (inactive)	> 100 µM (inactive)	> 100 µM (inactive)	> 100 µM (inactive)
COc1cc(/C=C/C(=O)C2(C(=O)/C=C/c3cc(OC)c(OC)c(OC)c3)CCCCC2)cc(OC)c1OC	56.4 µM (inactive)	27.6 µM (inactive)	21.5 µM (inactive)	27.5 µM (inactive)	> 100 µM (inactive)	30.1 µM (inactive)	38.3 µM (inactive)	51.3 µM (inactive)	34.8 µM (inactive)	35.7 µM (inactive)	46.6 µM (inactive)	76.9 µM (inactive)	29.6 µM (inactive)	26.2 µM (inactive)	32.1 µM (inactive)	80.7 µM (inactive)	52 µM (inactive)	> 100 µM (inactive)	> 100 µM (inactive)	36.6 µM (inactive)
CC(C)(CO)CNc1cc(Cl)nc(N)n1	> 100 µM (inactive)	> 100 µM (inactive)	> 100 µM (inactive)	> 100 µM (inactive)	> 100 µM (inactive)	> 100 µM (inactive)	> 100 µM (inactive)	> 100 µM (inactive)	> 100 µM (inactive)	> 100 µM (inactive)	> 100 µM (inactive)	> 100 µM (inactive)	> 100 µM (inactive)	> 100 µM (inactive)	> 100 µM (inactive)	> 100 µM (inactive)	> 100 µM (inactive)	> 100 µM (inactive)	> 100 µM (inactive)	
Cc1ccc(O)c(C(c2ccc(C(c3cc(C)ccc3O)c3cc(C)ccc3O)cc2)c2cc(C)ccc2O)c1	1.89 µM (inactive)	2.31 µM (inactive)	1.7 µM (inactive)	1.87 µM (inactive)	1.67 µM (inactive)	2.08 µM (inactive)	1.82 µM (inactive)	1.77 µM (inactive)	2.06 µM (inactive)	1.87 µM (inactive)	1.79 µM (inactive)	1.85 µM (inactive)	2.01 µM (inactive)	1.71 µM (inactive)	1.88 µM (inactive)		2.26 µM (inactive)	1.56 µM (inactive)	1.86 µM (inactive)	1.52 µM (inactive)
CC(C)(C)OC(=O)C1=C(N)N(Cc2ccccc2)C2(C)C=CC(=O)C=C12 (stereo not drawn)	13 µM (inactive)	2.5 µM (inactive)	4.02 µM (inactive)	5.73 µM (inactive)	12.4 µM (inactive)	1.67 µM (inactive)	2.37 µM (inactive)	2.74 µM (inactive)	14.9 µM (inactive)	4.03 µM (inactive)	3.36 µM (inactive)	5.24 µM (inactive)	1.95 µM (inactive)	7.93 µM (inactive)	23.9 µM (inactive)	15.5 µM (inactive)	1.88 µM (inactive)	10.2 µM (inactive)	11.7 µM (inactive)	16.1 µM (inactive)
N=c1oc2ccccc2cc1C(=O)Nc1cccc2ccccc12	> 100 µM (inactive)	83.2 µM (inactive)	> 100 µM (inactive)		> 100 µM (inactive)		> 100 µM (inactive)	> 100 µM (inactive)		> 100 µM (inactive)	> 100 µM (inactive)	> 100 µM (inactive)	> 100 µM (inactive)	> 100 µM (inactive)	> 100 µM (inactive)	> 100 µM (inactive)	> 100 µM (inactive)	> 100 µM (inactive)	> 100 µM (inactive)	> 100 µM (inactive)
CCOC(=O)C(NC(=O)CC)(N1CCN(c2cc3c(cc2F)c(=O)c(C(=O)O)cn3C2CC2)CC1)C(F)(F)F (stereo not drawn)	> 100 µM (inactive)	> 100 µM (inactive)	> 100 µM (inactive)	> 100 µM (inactive)	> 100 µM (inactive)	> 100 µM (inactive)	> 100 µM (inactive)	> 100 µM (inactive)	> 100 µM (inactive)	> 100 µM (inactive)	> 100 µM (inactive)	> 100 µM (inactive)	> 100 µM (inactive)	> 100 µM (inactive)	> 100 µM (inactive)	> 100 µM (inactive)	> 100 µM (inactive)	> 100 µM (inactive)	> 100 µM (inactive)	> 100 µM (inactive)
Cc1cc2c([N+](=O)[O-])cc3c(c2o1)C(=O)C=CC3=O	25.6 µM (inactive)	4.18 µM (inactive)	3.2 µM (inactive)	3.37 µM (inactive)	18.3 µM (inactive)	1.52 µM (inactive)	2.43 µM (inactive)	1.79 µM (inactive)	8.13 µM (inactive)	2.12 µM (inactive)	16.1 µM (inactive)	2.62 µM (inactive)	16.6 µM (inactive)	15.2 µM (inactive)	22.9 µM (inactive)	18.5 µM (inactive)	2.2 µM (inactive)	15.5 µM (inactive)	19.1 µM (inactive)	15.5 µM (inactive)
C1=N\CCN2CCN(CC/N=C\c3ccccc3OCc3cccc(n3)COc3ccccc3/1)CC2	9.66 µM (inactive)	1.52 µM (inactive)	0.973 µM (active)	13 µM (inactive)	44.6 µM (inactive)	24.2 µM (inactive)	2.35 µM (inactive)	2.48 µM (inactive)	3.62 µM (inactive)	8.2 µM (inactive)	6.15 µM (inactive)	10.5 µM (inactive)	9.75 µM (inactive)	1.73 µM (inactive)	2.28 µM (inactive)	38.2 µM (inactive)	3.16 µM (inactive)	40.9 µM (inactive)	20.6 µM (inactive)	9.91 µM (inactive)
CC1(C)OC(=O)CC12CCN(Cc1ccccc1)CC2	> 100 µM (inactive)	> 100 µM (inactive)	> 100 µM (inactive)	> 100 µM (inactive)	> 100 µM (inactive)	> 100 µM (inactive)		> 100 µM (inactive)	> 100 µM (inactive)	> 100 µM (inactive)	> 100 µM (inactive)	> 100 µM (inactive)	> 100 µM (inactive)	> 100 µM (inactive)	> 100 µM (inactive)		> 100 µM (inactive)	> 100 µM (inactive)	> 100 µM (inactive)	> 100 µM (inactive)
Cc1cnc2[nH]c(-c3cccc(F)c3)cc(=O)c2c1	0.0171 µM (active)	0.115 µM (active)	< 0.01 µM (active)	0.2 µM (active)	0.0515 µM (active)	0.0255 µM (active)	0.0252 µM (active)	0.0266 µM (active)	0.0322 µM (active)	0.0308 µM (active)	1.31 µM (inactive)	> 100 µM (inactive)	0.0757 µM (active)	0.0392 µM (active)	0.0146 µM (active)	0.0411 µM (active)	0.0186 µM (active)	0.0579 µM (active)	0.0802 µM (active)	0.0546 µM (active)
